# Laboratory results: patent US20090111786A1, “Compounds that Prevent Macrophage Apoptosis and Uses Thereof” (priority 2004, published 2009)
# Experiments:
# [1] = test system: bone marrow-derived macrophages (BMDMs); assay: Macrophage apoptosis on M-CSF withdrawal, sub-G1 DNA content by flow cytometry (PI); type: cell-based, mouse; conditions: for increase in cells with sub-G1 DNA content (apoptosis-induced DNA fragmentation): BMDMs pre-incubated with agonist, then cultured without M-CSF
# [2] = test system: LPS-dependent gene expression in macrophages; assay: Microarray analysis of LPS (TLR4)-induced apoptotic gene program; conditions: 9cRA alone
# Protocol: Microarray analysis: In one embodiment, large numbers of genes were assayed for relative expression levels using one or more of an Affymetrix U74A array and a Codelink Uniset 1 mouse array. Total RNA was isolated and purified using Trizol reagent (Invitrogen Life Technologies, Carlsbad, Calif.) and RNeasy columns (Qiagen, Valencia, Calif.). cRNA was generated from 10 μg total RNA using Superscript (Invitrogen) and the High Yield RNA transcription labeling kit (Enzo Biochem. Inc., Farmingdale, N.Y.). Duplicate samples of fragmented cRNA were hybridized to Affymetrix U74A arrays or Codelink Uniset 1 mouse arrays according to manufacture's instruction. Data was analyzed with Microarray Suite (Affymetrix, Santa Clara, Calif.) and Genespring software (Silicongenetics, Redwood City, Calif.).
# An additional series of microarray experiments was performed to evaluate the influence of LXR activation on regulation of the apoptotic program induced by engagement of TLR4 (FIG. 4). Macrophages were incubated with GW3965 or vehicle for 16 h and then treated with LPS for 6 hours.
# Macrophages were incubated with the LXR agonist GW3965 (1 μM) or vehicle for 16 h prior to treatment with LPS (100 ng/ml) for 6 h. Total RNA was subjected to microarray analysis using Codelink Mouse Uniset 1 microarrays.
# [3] = test system: WT and LXR−/− macrophages; assay: Cycloheximide-induced macrophage apoptosis, DNA fragmentation; type: cell-based, mouse; conditions: for apoptotic process induced by CHX (DNA fragmentation): preincubation 24 h
# macrophages = assay: Cycloheximide-induced general caspase activity, fluorimetric; type: cell-based, mouse; conditions: macrophages treated with CHX 10 μg/ml, 5 h
# [4] = test system: AIM (Apoptosis Inhibitor expressed by Macrophages) mRNA; assay: AIM mRNA expression by Northern blotting; conditions: differentiated macrophages; T1317: at 12 to 24 h of stimulation; EC 10 μM
Structure (SMILES),increase in cells with sub-G1 DNA content (apoptosis-induced DNA fragmentation) [1],AIM mRNA levels [4],other results
"CC1=C(/C=C/C(C)=C\C=C\C(C)=C\C(=O)O)C(C)(C)CCC1 [9cRA, 9-cis retinoic acid]",little effect,–,"effect on the action of the LXR-specific agonists on sub-G1 content ([1]; 9cRA combined with T1317, GW3965 or EC, M-CSF withdrawal): markedly enhanced; inhibitory activity on LPS-dependent gene expression [2]: very little inhibitory activity"
"C[C@@H]1C[C@@H]([C@H](O)CC2CC(=O)NC(=O)C2)C(=O)[C@@H](C)C1 [CHX, cycloheximide]",–,–,"DNA fragmentation ([3]; macrophages treated with CHX 10 μg/ml, 6 h): increased; caspase activation (macrophages): increased"
"C[C@H](CC[C@@H]1OC1(C)C)[C@H]1CC[C@H]2[C@@H]3CC=C4C[C@@H](O)CC[C@]4(C)[C@H]3CC[C@]12C [EC, 24(S),25-epoxycholesterol]",attenuated,induced,–
O=C(O)Cc1cccc(OCCCN(Cc2cccc(C(F)(F)F)c2Cl)CC(c2ccccc2)c2ccccc2)c1 [GW3965],attenuated,–,–
O=S(=O)(c1ccccc1)N(CC(F)(F)F)c1ccc(C(O)(C(F)(F)F)C(F)(F)F)cc1 [T1317],attenuated,highly induced,apoptotic process induced by CHX (DNA fragmentation) ([3]; LXR-deficient macrophages): not; apoptotic process induced by CHX (DNA fragmentation) ([3]; […]): attenuated
